Measurements from PubChem BioAssay AID1963825 (Molecular Pharmacology Branch, DTP, NCI, 2024).

assay: Anticancer human tumor 997537-175-T-J1-PDC patient-derived colon adenocarcinoma cell line growth inhibition [POLQ]; conditions: 997537-175-T-J1-PDC complex spheroid viability, combination with POLQ inhibitors; second compound 1 µM; first compound 0.316 µM; stronger effect = lower value
How it was run: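 PDC + HUVEC + MSC complex spheroids; POLQ inhibitors ± partner drugs; top conc. at/near clinical Cmax, else 10 microM (SN-38 1 microM), half-log dilutions; 37 degrees C, 5% CO2.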
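Also: luminescence signal used as a surrogate for viable cells; spheroids exposed to drugs for seven days before readout.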

Going from `O=C(Nc1ccc(O)c(NS(=O)(=O)c2ccc(F)cc2)c1)c1ccc(-c2ccccc2)cc1` + Nc1ccc(C#CCN(C(=O)Cc2ncc(C(F)(F)F)cc2C(F)(F)F)c2ccc(F)cc2)nn1 to `CC1COCCN1c1cc(-c2ccnn2C)c2ccnc(-c3ccn[nH]3)c2n1` (stereo unspecified) + Nc1ccc(C#CCN(C(=O)Cc2ncc(C(F)(F)F)cc2C(F)(F)F)c2ccc(F)cc2)nn1, the viability, T/C falls from 95.2% to 39.4%.

With `CC1COCCN1c1cc(C2(O)CC3CCC(C2)O3)c2cnn(-c3ccn[nH]3)c2n1` (stereo unspecified) + Cc1cccc(N(C)C(=O)C2C(O)CCN2c2nc(C)cc(C(F)(F)F)c2C#N)c1 the viability, T/C was 43.2%.
`CC1COCCN1c1cc(C2(O)CC3CCC(C2)O3)c2cnn(-c3ccn[nH]3)c2n1` (stereo unspecified) + COC1C(OC(N)=O)C(O)C(Oc2ccc3c(O)c(NC(=O)c4ccc(O)c(CC=C(C)C)c4)c(=O)oc3c2C)OC1(C)C gave a viability, T/C of 59.5%.

same assay, conditions: 997537-175-T-J1-PDC complex spheroid viability, combination with POLQ inhibitors; second compound 1 µM; first compound 1 µM; stronger effect = lower value

Compared with `COc1cc2cc(C(=O)CCC(=O)O)sc2cc1OC` + COC1C(OC(N)=O)C(O)C(Oc2ccc3c(O)c(NC(=O)c4ccc(O)c(CC=C(C)C)c4)c(=O)oc3c2C)OC1(C)C, `O=C(Nc1ccc(O)c(NS(=O)(=O)c2ccc(F)cc2)c1)c1ccc(-c2ccccc2)cc1` + Nc1ccc(C#CCN(C(=O)Cc2ncc(C(F)(F)F)cc2C(F)(F)F)c2ccc(F)cc2)nn1 is higher in viability, T/C: 93.5% for the first, 101% for the second.

Going from `CC1COCCN1c1cc(-c2ccnn2C)c2ccnc(-c3ccn[nH]3)c2n1` (stereo unspecified) + Nc1ccc(C#CCN(C(=O)Cc2ncc(C(F)(F)F)cc2C(F)(F)F)c2ccc(F)cc2)nn1 to `CC1COCCN1c1cc(C2(O)CC3CCC(C2)O3)c2cnn(-c3ccn[nH]3)c2n1` (stereo unspecified) + Cc1cccc(N(C)C(=O)C2C(O)CCN2c2nc(C)cc(C(F)(F)F)c2C#N)c1, the viability, T/C falls from 75.2% to 57.3%.

`CC1COCCN1c1cc(C2(O)CC3CCC(C2)O3)c2cnn(-c3ccn[nH]3)c2n1` (stereo unspecified) + COC1C(OC(N)=O)C(O)C(Oc2ccc3c(O)c(NC(=O)c4ccc(O)c(CC=C(C)C)c4)c(=O)oc3c2C)OC1(C)C showed a viability, T/C of 55.3%.

same assay, conditions: 997537-175-T-J1-PDC complex spheroid viability, combination with POLQ inhibitors; second compound 1 µM; first compound 3.16 µM; stronger effect = lower value

First: COc1cc2cc(C(=O)CCC(=O)O)sc2cc1OC + COC1C(OC(N)=O)C(O)C(Oc2ccc3c(O)c(NC(=O)c4ccc(O)c(CC=C(C)C)c4)c(=O)oc3c2C)OC1(C)C
Second: O=C(Nc1ccc(O)c(NS(=O)(=O)c2ccc(F)cc2)c1)c1ccc(-c2ccccc2)cc1 + Nc1ccc(C#CCN(C(=O)Cc2ncc(C(F)(F)F)cc2C(F)(F)F)c2ccc(F)cc2)nn1
The viability, T/C of the first is lower: 100% for the first, 102% for the second.

Going from `CC1COCCN1c1cc(-c2ccnn2C)c2ccnc(-c3ccn[nH]3)c2n1` (stereo unspecified) + Nc1ccc(C#CCN(C(=O)Cc2ncc(C(F)(F)F)cc2C(F)(F)F)c2ccc(F)cc2)nn1 to `CC1COCCN1c1cc(C2(O)CC3CCC(C2)O3)c2cnn(-c3ccn[nH]3)c2n1` (stereo unspecified) + Cc1cccc(N(C)C(=O)C2C(O)CCN2c2nc(C)cc(C(F)(F)F)c2C#N)c1, the viability, T/C rises from 50% to 81.9%.

With `CC1COCCN1c1cc(C2(O)CC3CCC(C2)O3)c2cnn(-c3ccn[nH]3)c2n1` (stereo unspecified) + COC1C(OC(N)=O)C(O)C(Oc2ccc3c(O)c(NC(=O)c4ccc(O)c(CC=C(C)C)c4)c(=O)oc3c2C)OC1(C)C the viability, T/C was 64.2%.

same assay, conditions: 997537-175-T-J1-PDC complex spheroid viability, combination with POLQ inhibitors; second compound 1 µM; first compound 10 µM; stronger effect = lower value

First: COc1cc2cc(C(=O)CCC(=O)O)sc2cc1OC + COC1C(OC(N)=O)C(O)C(Oc2ccc3c(O)c(NC(=O)c4ccc(O)c(CC=C(C)C)c4)c(=O)oc3c2C)OC1(C)C
Second: O=C(Nc1ccc(O)c(NS(=O)(=O)c2ccc(F)cc2)c1)c1ccc(-c2ccccc2)cc1 + Nc1ccc(C#CCN(C(=O)Cc2ncc(C(F)(F)F)cc2C(F)(F)F)c2ccc(F)cc2)nn1
The viability, T/C of the first is higher: 90.4% for the first, 89.8% for the second.

Going from `CC1COCCN1c1cc(-c2ccnn2C)c2ccnc(-c3ccn[nH]3)c2n1` (stereo unspecified) + Nc1ccc(C#CCN(C(=O)Cc2ncc(C(F)(F)F)cc2C(F)(F)F)c2ccc(F)cc2)nn1 to `CC1COCCN1c1cc(C2(O)CC3CCC(C2)O3)c2cnn(-c3ccn[nH]3)c2n1` (stereo unspecified) + Cc1cccc(N(C)C(=O)C2C(O)CCN2c2nc(C)cc(C(F)(F)F)c2C#N)c1, the viability, T/C rises from 53.4% to 64.7%.

With `CC1COCCN1c1cc(C2(O)CC3CCC(C2)O3)c2cnn(-c3ccn[nH]3)c2n1` (stereo unspecified) + COC1C(OC(N)=O)C(O)C(Oc2ccc3c(O)c(NC(=O)c4ccc(O)c(CC=C(C)C)c4)c(=O)oc3c2C)OC1(C)C the viability, T/C was 42.8%.

same assay, conditions: 997537-175-T-J1-PDC complex spheroid viability, combination with POLQ inhibitors; second compound 3.16 µM; first compound 0.0316 µM; stronger effect = lower value

Compared with `COc1cc2cc(C(=O)CCC(=O)O)sc2cc1OC` + COC1C(OC(N)=O)C(O)C(Oc2ccc3c(O)c(NC(=O)c4ccc(O)c(CC=C(C)C)c4)c(=O)oc3c2C)OC1(C)C, `O=C(Nc1ccc(O)c(NS(=O)(=O)c2ccc(F)cc2)c1)c1ccc(-c2ccccc2)cc1` + Nc1ccc(C#CCN(C(=O)Cc2ncc(C(F)(F)F)cc2C(F)(F)F)c2ccc(F)cc2)nn1 is higher in viability, T/C: 96.2% for the first, 98% for the second.

Compared with `CC1COCCN1c1cc(-c2ccnn2C)c2ccnc(-c3ccn[nH]3)c2n1` (stereo unspecified) + Nc1ccc(C#CCN(C(=O)Cc2ncc(C(F)(F)F)cc2C(F)(F)F)c2ccc(F)cc2)nn1, `CC1COCCN1c1cc(C2(O)CC3CCC(C2)O3)c2cnn(-c3ccn[nH]3)c2n1` (stereo unspecified) + Cc1cccc(N(C)C(=O)C2C(O)CCN2c2nc(C)cc(C(F)(F)F)c2C#N)c1 is lower in viability, T/C: 99.2% for the first, 84.3% for the second.

In the case of `CC1COCCN1c1cc(C2(O)CC3CCC(C2)O3)c2cnn(-c3ccn[nH]3)c2n1` (stereo unspecified) + COC1C(OC(N)=O)C(O)C(Oc2ccc3c(O)c(NC(=O)c4ccc(O)c(CC=C(C)C)c4)c(=O)oc3c2C)OC1(C)C, the viability, T/C is reported as 82.8%.

same assay, conditions: 997537-175-T-J1-PDC complex spheroid viability, combination with POLQ inhibitors; second compound 3.16 µM; first compound 0.1 µM; stronger effect = lower value

First: COc1cc2cc(C(=O)CCC(=O)O)sc2cc1OC + COC1C(OC(N)=O)C(O)C(Oc2ccc3c(O)c(NC(=O)c4ccc(O)c(CC=C(C)C)c4)c(=O)oc3c2C)OC1(C)C
Second: O=C(Nc1ccc(O)c(NS(=O)(=O)c2ccc(F)cc2)c1)c1ccc(-c2ccccc2)cc1 + Nc1ccc(C#CCN(C(=O)Cc2ncc(C(F)(F)F)cc2C(F)(F)F)c2ccc(F)cc2)nn1
The viability, T/C of the first is higher: 101% for the first, 97.9% for the second.
